Experiment [1] concerns P. falciparum. Put plainly: EC50 listed in S2 Table Metabolomics (used to set the concentration tested). Type of experiment: cell-based. As to conditions: Plasmodium falciparum; EC50 used for Factor_XEC50 in metabolomics; read-out: EC50_nM.
Experiment [2] has as its system Saccharomyces cerevisiae strain WC081. Put plainly: Yeast disc diffusion in combination with artemisinin. Type of experiment: cell-based. Conditions: 10 µL of 1 mM on disc, 0.2 µM artemisinin, read-out: larger zone size with artemisinin (SCG+artemisinin minus SCG). An excerpt:
Yeast screening for enhanced drug effects in combination with artemisinin, Jensen group (data presented first in this paper). […] Yeast (S. cerevisiae) was used as a proxy for P. falciparum, because the killing of S. cerevisiae and P. falciparum appear to have similarities. Saccharomyces cerevisiae strain WC081 (Mat a, leu2∆0, lys2∆0, ura3∆0, his3∆1, pdr1∆::HIS3, pdr3∆::kanMX4) was utilized and was originally derived from strain BY4742. Regulators of Multi-drug resistance transporters have been deleted from this strain to enhance the toxicity of compounds. Assay utilized the disc diffusion method with the observance of a clear zone indicating inhibition of growth. Synthetic complete medium containing 3% glycerol as a carbon source (SCG) was used in each assay. 10 µL of each compound at 1 mM was added to a paper disc which was placed on SCG and SCG^+artemisinin (0.2 µM) plates seeded with 10e6 yeast cells. Plates were incubated at 30 °C for 5 days and clear zones were measured. Compounds that produced a larger clear zone in the presence of artemisinin were considered to have an additive interaction with artemisinin. Results are reported as diameter of clear zone on SCG^+artemisinin plates - diameter of clear zone on SCG plates without artemisinin.

Experiment [3] has as its system P. falciparum 3D7 trophozoites. The experiment can be described thus: Metabolomic fingerprint profiling LC-MS. Type of experiment: cell-based, Plasmodium falciparum. On the set-up: UDP-D-glucose / ADP-D-glucose: unit not given here.
The target of experiment [4] is T1, PfMTIP-MyoA (Plasmodium falciparum, UniProt Q8I4W8).
T1 construct: made in house; host or cells: E. coli BL21 DE3 (peptide)
T1 sequence (Q8I4W8 entry or part of it): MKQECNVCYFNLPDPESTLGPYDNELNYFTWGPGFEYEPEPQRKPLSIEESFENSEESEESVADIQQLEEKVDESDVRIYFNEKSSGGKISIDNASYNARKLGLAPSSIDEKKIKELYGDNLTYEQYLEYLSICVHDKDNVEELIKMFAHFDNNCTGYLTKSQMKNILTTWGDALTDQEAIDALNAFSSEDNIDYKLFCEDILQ
The experiment can be described thus: SPR MTIP-MyoA PPI. The class given is binding, P. falciparum. On the procedure:
Atg8-Atg3, Aldolase-TRAP, and Aldolase-MTRAP, MTIP-MyoA, GAP50-FactorH protein-protein interaction (PPI) inhibitor and Surface Plasmon Resonance screening to identify protein-protein interaction inhibitors, Bosch group (Atg8-Atg3 interactions are published in ref [38], rest are not or as noted below). In a primary screen, the Malaria Box compounds were screened at 5 µM final concentration in 1x PBS supplemented with 0.01% (v/v) P20 and 1% (v/v) DMSO using a Biacore 3000 instrument. While one protein was covalently attached to the chip surface via amine coupling, the analyte was passed over the chip in the presence and absence of Malaria Box compounds. Every 12th injection a positive control was passed over the chip to ensure constant binding of the partner protein during the duration of the experiment. Malaria Box compounds resulting in more than 25% decrease in binding of the two proteins to each other were further considered in a dose-response screen ranging from 50 µM to 200 nM. Similar to the primary screen, a positive control, consisting of the protein partner alone in the absence of small molecule compounds, was passed over the flow cells to ensure that the chip surface had not decayed over the course of the experiment. All SPR interaction studies were performed as previously described. […]

The target of experiment [5] is PfPMT (Plasmodium falciparum, UniProt Q8IDQ9). Put plainly: PfPMT gene replacement yeast growth. As to conditions: 100µM.
PfPMT, sequence (Q8IDQ9 whole entry): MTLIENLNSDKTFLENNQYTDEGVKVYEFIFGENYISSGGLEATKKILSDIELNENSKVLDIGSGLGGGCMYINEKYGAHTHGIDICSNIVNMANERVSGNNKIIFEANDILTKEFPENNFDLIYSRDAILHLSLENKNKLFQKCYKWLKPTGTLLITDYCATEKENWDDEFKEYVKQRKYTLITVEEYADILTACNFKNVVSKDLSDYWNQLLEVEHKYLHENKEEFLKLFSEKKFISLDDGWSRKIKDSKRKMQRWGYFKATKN
Where [6] appears, read: metabolite level change after treatment.

In the case of `Cc1cc(Nc2ccc3ccccc3c2)n2ncnc2n1` [MMV011099], the EC50 in experiment [1] worked out at 242 nM. Besides, the zone of inhibition at 1000 µM in experiment [2] turned out to be 7 mm. In addition, the Acetyllysine in experiment [3] (S2 Table Metabolomics, metabolite Acetyllysine) is 0.02852. In addition, the N-acetyl-L-ornithine in experiment [3] (S2 Table Metabolomics, metabolite N-acetyl-L-ornithine) came out at 0.1505. Further, the N-carbamoyl-L-aspartate in experiment [3] (S2 Table Metabolomics, metabolite N-carbamoyl-L-aspartate) is recorded as 3.868. The NADPH in experiment [3] (S2 Table Metabolomics, metabolite NADPH) is listed as 1.182. Besides, the dAMP in experiment [3] (S2 Table Metabolomics, metabolite dAMP) was -0.08024. In experiment [3] (S2 Table Metabolomics, metabolite dCMP), the dCMP is recorded as -0.5906. Besides, the dTDP in experiment [3] (S2 Table Metabolomics, metabolite dTDP) is given as -1.017. Besides, in experiment [3] (S2 Table Metabolomics, metabolite dTMP), the dTMP is on record as -0.9279. For the same compound, in experiment [3] (S2 Table Metabolomics, metabolite dTTP), the dTTP is given as -1.156. Also, the dihydroorotate in experiment [3] (S2 Table Metabolomics, metabolite dihydroorotate) was found to be 4.157. The orotate in experiment [3] (S2 Table Metabolomics, metabolite orotate) is -1.974. Also, in experiment [3] (S2 Table Metabolomics, peptide DLH), the DLH was determined as 0.4532. In experiment [3] (S2 Table Metabolomics, peptide DLS/SDL/SID), the DLS/SDL/SID worked out at 0.4641. Further, in experiment [3] (S2 Table Metabolomics, peptide PD), the PD is recorded as 0.1181. The same compound returned a PEE in experiment [3] (S2 Table Metabolomics, peptide PEE) of 0.2947. This compound also gave a PVNF in experiment [3] (S2 Table Metabolomics, peptide PVNF) of 0.2329. Moreover, in experiment [3] (metabolite 3-phosphoglycerate, S2 Table Metabolomics), the 3-phosphoglycerate was -0.2056. The ADP-D-glucose in experiment [3] (metabolite ADP-D-glucose, S2 Table Metabolomics) stood at 0.1525. Also, the ATP in experiment [3] (metabolite ATP, S2 Table Metabolomics) is 0.2332. Further, in experiment [3] (metabolite CDP, S2 Table Metabolomics, change in metabolite level after compound treatment), the CDP is recorded as -0.709. Also, the D-sedoheptulose-1/7-phosphate in experiment [3] (metabolite D-sedoheptulose-1/7-phosphate, S2 Table Metabolomics, change in metabolite level after compound treatment) amounted to 0.01889. Also, the FAD in experiment [3] (metabolite FAD, S2 Table Metabolomics) stood at 0.08024. The GMP in experiment [3] (metabolite GMP, S2 Table Metabolomics, change in metabolite level after compound treatment) is reported as 0.02967. Moreover, the “NAD+” value in experiment [3] (metabolite NAD+, S2 Table Metabolomics) is given as -0.0008425. Besides, the “NADP+” value in experiment [3] (metabolite NADP+, S2 Table Metabolomics) came to 0.1353. Also, the “Octoluse Bisphosphate” value in experiment [3] (metabolite Octoluse Bisphosphate, S2 Table Metabolomics, change in metabolite level after compound treatment) is reported as 0.08614. Further, the Pyroglutamic acid in experiment [3] (metabolite Pyroglutamic acid, S2 Table Metabolomics) is on record as -0.4752. Besides, in experiment [3] (metabolite UDP-D-glucose, S2 Table Metabolomics), the UDP-D-glucose came to 0.067. The UDP-D-glucuronate in experiment [3] (metabolite UDP-D-glucuronate, S2 Table Metabolomics) is -0.02366. In addition, the UDP-N-acetyl-glucosamine in experiment [3] (metabolite UDP-N-acetyl-glucosamine, S2 Table Metabolomics) is listed as -0.1127. In addition, the UDP in experiment [3] (metabolite UDP, S2 Table Metabolomics, change in metabolite level after compound treatment) is given as -1.3628. Also, in experiment [3] (metabolite UMP, S2 Table Metabolomics, change in metabolite level after compound treatment), the UMP is given as -1.675. For the same compound, the UTP in experiment [3] (metabolite UTP, S2 Table Metabolomics, change in metabolite level after compound treatment) is on record as -1.64. For the same compound, in experiment [3] (metabolite a-ketoglutarate, S2 Table Metabolomics), the a-ketoglutarate was -1.062. Besides, in experiment [3] (metabolite citrate/isocitrate, S2 Table Metabolomics, change in metabolite level after compound treatment), the citrate/isocitrate is listed as -1.28. Further, the cytidine in experiment [3] (metabolite cytidine, S2 Table Metabolomics) is 0.7717. Also, the dATP in experiment [3] (metabolite dATP, S2 Table Metabolomics) was 0.5433. In addition, the dGMP/AMP in experiment [3] (metabolite dGMP/AMP, S2 Table Metabolomics, change in metabolite level after compound treatment) is -0.03244. The fumarate in experiment [3] (metabolite fumarate, S2 Table Metabolomics, change in metabolite level after compound treatment) is -1.091. Further, the glucose-1/6-phosphate in experiment [3] (metabolite glucose-1/6-phosphate, S2 Table Metabolomics, change in metabolite level after compound treatment) is given as 0.2093. In addition, the glycerate in experiment [3] (metabolite glycerate, S2 Table Metabolomics, change in metabolite level after compound treatment) is given as -1.246. The guanine in experiment [3] (metabolite guanine, S2 Table Metabolomics, change in metabolite level after compound treatment) is -0.547. Moreover, the guanosine in experiment [3] (metabolite guanosine, S2 Table Metabolomics, change in metabolite level after compound treatment) was -1.524. Besides, in experiment [3] (metabolite hypoxanthine, S2 Table Metabolomics), the hypoxanthine amounted to 0.001118. Also, in experiment [3] (metabolite indole, S2 Table Metabolomics), the indole is recorded as 0.03287. Besides, the inosine in experiment [3] (metabolite inosine, S2 Table Metabolomics, change in metabolite level after compound treatment) is recorded as -0.4013. Moreover, in experiment [3] (setting [6]), the 2_3-Diphosphoglyceric acid was -0.01924, the 4-phosphopantothenate is -0.6208, the 6-phospho-D-gluconate stood at 0.1135 and the FMN is reported as -0.06047. In experiment [3] (setting [6]), the IMP is -0.0451, the Pyrophosphate was found to be 0.1187, the Sedoheptoluse bisphosphate was -0.1999 and the cyclic-AMP is -0.1393. Besides, in experiment [3] (setting [6]), the glutathione disulfide was -0.2357, the lactate is -0.8843 and the myo-inositol is on record as -1.14. In experiment [3] (metabolite nicotinate, S2 Table Metabolomics), the nicotinate was -1.365. The ornithine in experiment [3] (metabolite ornithine, S2 Table Metabolomics) was found to be 0.02843. In addition, the phosphoenolpyruvate in experiment [3] (metabolite phosphoenolpyruvate, S2 Table Metabolomics) is -0.5081. In experiment [3] (metabolite pyruvate, S2 Table Metabolomics, change in metabolite level after compound treatment), the pyruvate is recorded as -1.9111. Besides, the ribose-phosphate in experiment [3] (metabolite ribose-phosphate, S2 Table Metabolomics) amounted to 0.184. Also, the sarcosine/alanine in experiment [3] (metabolite sarcosine/alanine, S2 Table Metabolomics, change in metabolite level after compound treatment) is -0.4398. In addition, the sn-glycerol-3-phosphate in experiment [3] (metabolite sn-glycerol-3-phosphate, S2 Table Metabolomics) is -0.3081. For the same compound, the succinate/methylmalonic acid in experiment [3] (metabolite succinate/methylmalonic acid, S2 Table Metabolomics, change in metabolite level after compound treatment) was -0.5239. Besides, the uridine in experiment [3] (metabolite uridine, S2 Table Metabolomics, change in metabolite level after compound treatment) was -1.376. Besides, the xanthosine in experiment [3] (metabolite xanthosine, S2 Table Metabolomics, change in metabolite level after compound treatment) is -0.974.
For `Cc1ccc(CN2CCC(C(=O)Nc3ccc(-c4cc5ccccc5[nH]4)cc3)CC2)o1` [MMV666071], the “identified against the PfMTIP-MyoA interaction” value in experiment [4] is listed as “identified against the PfMTIP-MyoA interaction”.
For `O=C(NC(c1ccccc1)c1ccc2cccnc2c1O)c1ccccc1` (stereo not drawn) [MMV666080], in experiment [4], the “identified against the PfMTIP-MyoA interaction” value is on record as “identified against the PfMTIP-MyoA interaction”. Also, in experiment [5], the “candidate inhibitors of PfPMT activity (yeast functional assay)” value is reported as “candidate inhibitors of PfPMT activity”.

The values are drawn from PMC4965013, “Open Source Drug Discovery with the Malaria Box Compound Collection for Neglected Diseases and Beyond” (PLoS Pathogens, 2016).
